Source: US7632972B2, “Compounds and methods for treatment of cancer and modulation of programmed cell death for melanoma and other cancer cells” (The Board of Trustees of the University of Illionis, priority 2003, dated 2009)

System: U-937 cells
Experiment: High-throughput cell death assay on library members (MTS/PMS)
Type: cell-based, human
Conditions: library members at 100 μM, 24 hours
Experimental: A three-tiered system was devised to identify compounds that selectively induce apoptosis in cancer cells. First, all compounds were screened at 100 μM in a high-throughput manner for their ability to induce death in two cancer cell lines, HL-60 (leukemia) and U-937 (lymphoma).
Test compounds were transferred into the wells using a 96-pin transfer apparatus (V & P Scientific, San Diego Calif.) that transfers 0.2 μL of compound. The compounds were made up as 50 mM stock solutions in 100% EtOH, so one transfer gave a final concentration of 100 μM. Controls were performed in which only EtOH (containing no compound) was pin-transferred into wells containing cells. The cells were incubated with the compounds for 24 hours, and then cell death was quantitated.

| SMILES | Induction of death in U-937 cells (percentages of cell death) [%] |
| --- | --- |
| CO[C@H](CNC(=O)/C=C/c1ccccc1)c1ccccc1 [Compound 8-A] | 70 |
| CO[C@H](CNC(=O)/C=C/c1ccc(O)cc1)c1ccccc1 [Compound 8-B] | 34 |
| CO[C@H](CNC(=O)/C=C/c1ccc(O)c(O)c1)c1ccccc1 [Compound 8-C] | −5 |
| COc1cc(/C=C/C(=O)NC[C@@H](OC)c2ccccc2)ccc1O [Compound 8-D] | 20 |
| COc1ccc(/C=C/C(=O)NC[C@@H](OC)c2ccccc2)cc1O [Compound 8-E] | 56 |
| COc1cc(/C=C/C(=O)NC[C@@H](OC)c2ccccc2)cc(OC)c1OC [Compound 8-F] | 31 |
| COc1cc(/C=C/C(=O)NC[C@@H](OC)c2ccccc2)cc(OC)c1O [Compound 8-G] | −3 |
| COc1cccc(/C=C/C(=O)NC[C@@H](OC)c2ccccc2)c1 [Compound 8-H] | 60 |
| CO[C@H](CNC(=O)/C=C/c1ccccc1)c1ccc(O)cc1 [Compound 9-A] | 24 |
| CO[C@H](CNC(=O)/C=C/c1ccc(O)cc1)c1ccc(O)cc1 [Compound 9-B] | 20 |
| CO[C@H](CNC(=O)/C=C/c1ccc(O)c(O)c1)c1ccc(O)cc1 [Compound 9-C] | −12 |
| COc1ccc(/C=C/C(=O)NC[C@@H](OC)c2ccc(O)cc2)cc1O [Compound 9-E] | 41 |
| COc1cc(/C=C/C(=O)NC[C@@H](OC)c2ccc(O)cc2)cc(OC)c1OC [Compound 9-F] | 13 |
| COc1cc(/C=C/C(=O)NC[C@@H](OC)c2ccc(O)cc2)cc(OC)c1O [Compound 9-G] | −7 |
| COc1cccc(/C=C/C(=O)NC[C@@H](OC)c2ccc(O)cc2)c1 [Compound 9-H] | 38 |
| COc1ccc([C@@H](CNC(=O)/C=C/c2ccccc2)OC)cc1 [Compound 10-A] | 51 |
| COc1ccc([C@@H](CNC(=O)/C=C/c2ccc(O)cc2)OC)cc1 [Compound 10-B] | 60 |
| COc1ccc([C@@H](CNC(=O)/C=C/c2ccc(O)c(O)c2)OC)cc1 [Compound 10-C] | −8 |
| COc1ccc([C@@H](CNC(=O)/C=C/c2ccc(O)c(OC)c2)OC)cc1 [Compound 10-D] | 31 |
| COc1ccc([C@@H](CNC(=O)/C=C/c2ccc(OC)c(O)c2)OC)cc1 [Compound 10-E] | 55 |
| COc1ccc([C@@H](CNC(=O)/C=C/c2cc(OC)c(OC)c(OC)c2)OC)cc1 [Compound 10-F] | 45 |
| COc1ccc([C@@H](CNC(=O)/C=C/c2cc(OC)c(O)c(OC)c2)OC)cc1 [Compound 10-G] | 16 |
| COc1ccc([C@@H](CNC(=O)/C=C/c2cccc(OC)c2)OC)cc1 [Compound 10-H] | 72 |
| CO[C@@H](CNC(=O)/C=C/c1ccccc1)c1ccc(O)cc1 [Compound 11-A] | 26 |

| SMILES | Induction of death in U-937 cells (percentages of cell death) [%] |
| --- | --- |
| CO[C@@H](CNC(=O)/C=C/c1ccc(O)cc1)c1ccc(O)cc1 [Compound 11-B] | 60 |
| CO[C@@H](CNC(=O)/C=C/c1ccc(O)c(O)c1)c1ccc(O)cc1 [Compound 11-C] | −9 |
| COc1cc(/C=C/C(=O)NC[C@H](OC)c2ccc(O)cc2)ccc1O [Compound 11-D] | 34 |
| COc1ccc(/C=C/C(=O)NC[C@H](OC)c2ccc(O)cc2)cc1O [Compound 11-E] | 41 |
| COc1cc(/C=C/C(=O)NC[C@H](OC)c2ccc(O)cc2)cc(OC)c1OC [Compound 11-F] | 27 |
| COc1cc(/C=C/C(=O)NC[C@H](OC)c2ccc(O)cc2)cc(OC)c1O [Compound 11-G] | −11 |
| O=C(/C=C/c1ccccc1)NC[C@@H](O)c1ccccc1 [Compound 12-A] | 26 |
| O=C(/C=C/c1ccc(O)cc1)NC[C@@H](O)c1ccccc1 [Compound 12-B] | 47 |
| O=C(/C=C/c1ccc(O)c(O)c1)NC[C@@H](O)c1ccccc1 [Compound 12-C] | 27 |
| COc1ccc(/C=C/C(=O)NC[C@@H](O)c2ccccc2)cc1O [Compound 12-E] | 28 |
| COc1cc(/C=C/C(=O)NC[C@@H](O)c2ccccc2)cc(OC)c1OC [Compound 12-F] | 33 |
| COc1cc(/C=C/C(=O)NC[C@@H](O)c2ccccc2)cc(OC)c1O [Compound 12-G] | 41 |
| COc1cccc(/C=C/C(=O)NC[C@@H](O)c2ccccc2)c1 [Compound 12-H] | 51 |
| O=C(/C=C/c1ccccc1)NC[C@@H](O)c1ccc(O)cc1 [Compound 13-A] | 43 |
| O=C(/C=C/c1ccc(O)cc1)NC[C@@H](O)c1ccc(O)cc1 [Compound 13-B] | 49 |
| O=C(/C=C/c1ccc(O)c(O)c1)NC[C@@H](O)c1ccc(O)cc1 [Compound 13-C] | −36 |
| COc1ccc(/C=C/C(=O)NC[C@@H](O)c2ccc(O)cc2)cc1O [Compound 13-E] | 43 |
| COc1cc(/C=C/C(=O)NC[C@@H](O)c2ccc(O)cc2)cc(OC)c1OC [Compound 13-F] | 22 |
| COc1cc(/C=C/C(=O)NC[C@@H](O)c2ccc(O)cc2)cc(OC)c1O [Compound 13-G] | 16 |
| COc1cccc(/C=C/C(=O)NC[C@@H](O)c2ccc(O)cc2)c1 [Compound 13-H] | 43 |
| COc1ccc([C@H](O)CNC(=O)/C=C/c2ccccc2)cc1 [Compound 14-A] | 28 |
| COc1ccc([C@H](O)CNC(=O)/C=C/c2ccc(O)cc2)cc1 [Compound 14-B] | 27 |
| COc1ccc([C@H](O)CNC(=O)/C=C/c2ccc(O)c(O)c2)cc1 [Compound 14-C] | −15 |
| COc1ccc([C@H](O)CNC(=O)/C=C/c2ccc(O)c(OC)c2)cc1 [Compound 14-D] | 59 |

| SMILES | Induction of death in U-937 cells (percentages of cell death) [%] |
| --- | --- |
| COc1ccc([C@H](O)CNC(=O)/C=C/c2ccc(OC)c(O)c2)cc1 [Compound 14-E] | 35 |
| COc1ccc([C@H](O)CNC(=O)/C=C/c2cc(OC)c(OC)c(OC)c2)cc1 [Compound 14-F] | 26 |
| COc1ccc([C@H](O)CNC(=O)/C=C/c2cc(OC)c(O)c(OC)c2)cc1 [Compound 14-G] | 48 |
| COc1ccc([C@H](O)CNC(=O)/C=C/c2cccc(OC)c2)cc1 [Compound 14-H] | 38 |
| O=C(/C=C/c1ccccc1)NC[C@H](O)c1ccc(O)cc1 [Compound 15-A] | 27 |
| O=C(/C=C/c1ccc(O)cc1)NC[C@H](O)c1ccc(O)cc1 [Compound 15-B] | 39 |
| O=C(/C=C/c1ccc(O)c(O)c1)NC[C@H](O)c1ccc(O)cc1 [Compound 15-C] | −29 |
| COc1ccc(/C=C/C(=O)NC[C@H](O)c2ccc(O)cc2)cc1O [Compound 15-E] | 22 |
| COc1cc(/C=C/C(=O)NC[C@H](O)c2ccc(O)cc2)cc(OC)c1OC [Compound 15-F] | 12 |
| COc1cc(/C=C/C(=O)NC[C@H](O)c2ccc(O)cc2)cc(OC)c1O [Compound 15-G] | 47 |
| COc1cccc(/C=C/C(=O)NC[C@H](O)c2ccc(O)cc2)c1 [Compound 15-H] | 24 |
| O=C(/C=C/c1ccccc1)NCCc1ccccc1 [Compound 16-A] | 58 |
| O=C(/C=C/c1ccc(O)cc1)NCCc1ccccc1 [Compound 16-B] | 66 |
| O=C(/C=C/c1ccc(O)c(O)c1)NCCc1ccccc1 [Compound 16-C] | 24 |
| COc1cc(/C=C/C(=O)NCCc2ccccc2)ccc1O [Compound 16-D] | 39 |
| COc1ccc(/C=C/C(=O)NCCc2ccccc2)cc1O [Compound 16-E] | 60 |
| COc1cc(/C=C/C(=O)NCCc2ccccc2)cc(OC)c1OC [Compound 16-F] | 30 |
| COc1cc(/C=C/C(=O)NCCc2ccccc2)cc(OC)c1O [Compound 16-G] | 20 |
| COc1cccc(/C=C/C(=O)NCCc2ccccc2)c1 [Compound 16-H] | 57 |
| O=C(/C=C/c1ccccc1)NCCc1ccc(O)cc1 [Compound 17-A] | 48 |
| O=C(/C=C/c1ccc(O)cc1)NCCc1ccc(O)cc1 [Compound 17-B] | 32 |
| O=C(/C=C/c1ccc(O)c(O)c1)NCCc1ccc(O)cc1 [Compound 17-C] | 15 |
